Assay results taken from ChEMBL document CHEMBL3244221, “Attempted inhibition of histidine decarboxylase with beta-alkyl analogues of histidine” (J Med Chem, 1977).
The source made the active and inactive calls. The rule behind the calls is not given here.

Legend:
[1] = target: T1, Histidine decarboxylase (Rattus norvegicus) (UniProt P16453); assay: Inhibition of histidine decarboxylase in Sprague-Dawley rat stomach using L-histidine-carboxyl-[14C] as substrate at 1 X 10^-4 M after 30 mins by scintillation counting analysis
T1 sequence (whole entry): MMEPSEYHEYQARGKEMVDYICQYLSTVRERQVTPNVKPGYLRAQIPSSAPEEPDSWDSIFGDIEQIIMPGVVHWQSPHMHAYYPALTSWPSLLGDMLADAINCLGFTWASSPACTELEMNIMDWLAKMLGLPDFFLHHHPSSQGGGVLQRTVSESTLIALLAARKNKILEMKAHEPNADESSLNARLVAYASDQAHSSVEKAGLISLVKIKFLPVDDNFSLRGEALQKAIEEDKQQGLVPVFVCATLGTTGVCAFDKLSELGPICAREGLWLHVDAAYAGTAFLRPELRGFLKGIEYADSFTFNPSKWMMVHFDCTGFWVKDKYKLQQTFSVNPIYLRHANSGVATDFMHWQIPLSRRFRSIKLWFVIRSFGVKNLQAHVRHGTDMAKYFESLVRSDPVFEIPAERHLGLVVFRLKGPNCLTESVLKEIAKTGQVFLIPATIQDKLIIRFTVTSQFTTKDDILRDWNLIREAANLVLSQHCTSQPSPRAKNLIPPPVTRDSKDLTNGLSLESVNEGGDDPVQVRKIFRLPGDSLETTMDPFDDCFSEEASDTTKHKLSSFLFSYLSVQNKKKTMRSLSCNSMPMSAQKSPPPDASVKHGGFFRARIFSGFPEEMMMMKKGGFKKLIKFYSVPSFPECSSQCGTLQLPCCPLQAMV

[2] = target: T1, Histidine decarboxylase (Rattus norvegicus); assay: Inhibition of histidine decarboxylase in Sprague-Dawley rat stomach using L-histidine-carboxyl-[14C] as substrate at 4 X 10^-6 M after 30 mins by scintillation counting analysis relative to control

Compound	inhibition [1]	inhibition [2] [%]
CC(c1c[nH]cn1)C(N)C(=O)O (configuration not stated)	inactive	
CCCCCCC(c1c[nH]cn1)C(N)C(=O)O (mixture of isomers)	inactive	
COC(=O)C(N)C(C)c1c[nH]cn1 (mixture of isomers)	inactive	50

Continued, values first:

inhibition [1]	inhibition [2] [%]	Compound
inactive		CCC(c1c[nH]cn1)C(N)C(=O)O (mixture of isomers)
inactive	50	CCC(c1c[nH]cn1)C(N)C(=O)OC (mixture of isomers)
